Results reported in ChEMBL document CHEMBL4330065, “Type IIA - Type IIB protein tyrosine kinase inhibitors hybridization as an efficient approach for potent multikinase inhibitor development: Design, synthesis, anti-proliferative activity, multikinase inhibitory activity and molecular modeling of novel indolinone-based ureides and amides” (Eur J Med Chem, 2019).

What was measured:
[1] = target: Fibroblast growth factor receptor 1 (Homo sapiens, UniProt P11362); assay: Inhibition of FGFR-1 (unknown origin) by ELISA
[2] = target: Platelet-derived growth factor receptor beta (Homo sapiens, UniProt P09619); assay: Inhibition of PDGFR-beta (unknown origin) by ELISA
[3] = system: HepG2; assay: Antiproliferative activity against human HepG2 cells after 48 hrs by SRB assay; assay type: functional, cell-based; settings: HepG2, 48 h
[4] = system: A498; assay: Antiproliferative activity against human A498 cells after 48 hrs by SRB assay; assay type: functional, cell-based; settings: A498, 48 h
[5] = Cytotoxicity against human HFB4 cells after 48 hrs by SRB assay; assay type: cell-based
[6] = system: A549; assay: cells; settings: Homo sapiens, A549, 48 h
Description: Antiproliferative activity against human A549 cells after 48 hrs by SRB assay

[7] = system: MCF7; assay: cells; settings: Homo sapiens, MCF7, 48 h
Description: Antiproliferative activity against human MCF7 cells after 48 hrs by SRB assay

[8] = target: Vascular endothelial growth factor receptor 2 (Homo sapiens, UniProt P35968)
Chain of Vascular endothelial growth factor receptor 2 (P35968 whole entry): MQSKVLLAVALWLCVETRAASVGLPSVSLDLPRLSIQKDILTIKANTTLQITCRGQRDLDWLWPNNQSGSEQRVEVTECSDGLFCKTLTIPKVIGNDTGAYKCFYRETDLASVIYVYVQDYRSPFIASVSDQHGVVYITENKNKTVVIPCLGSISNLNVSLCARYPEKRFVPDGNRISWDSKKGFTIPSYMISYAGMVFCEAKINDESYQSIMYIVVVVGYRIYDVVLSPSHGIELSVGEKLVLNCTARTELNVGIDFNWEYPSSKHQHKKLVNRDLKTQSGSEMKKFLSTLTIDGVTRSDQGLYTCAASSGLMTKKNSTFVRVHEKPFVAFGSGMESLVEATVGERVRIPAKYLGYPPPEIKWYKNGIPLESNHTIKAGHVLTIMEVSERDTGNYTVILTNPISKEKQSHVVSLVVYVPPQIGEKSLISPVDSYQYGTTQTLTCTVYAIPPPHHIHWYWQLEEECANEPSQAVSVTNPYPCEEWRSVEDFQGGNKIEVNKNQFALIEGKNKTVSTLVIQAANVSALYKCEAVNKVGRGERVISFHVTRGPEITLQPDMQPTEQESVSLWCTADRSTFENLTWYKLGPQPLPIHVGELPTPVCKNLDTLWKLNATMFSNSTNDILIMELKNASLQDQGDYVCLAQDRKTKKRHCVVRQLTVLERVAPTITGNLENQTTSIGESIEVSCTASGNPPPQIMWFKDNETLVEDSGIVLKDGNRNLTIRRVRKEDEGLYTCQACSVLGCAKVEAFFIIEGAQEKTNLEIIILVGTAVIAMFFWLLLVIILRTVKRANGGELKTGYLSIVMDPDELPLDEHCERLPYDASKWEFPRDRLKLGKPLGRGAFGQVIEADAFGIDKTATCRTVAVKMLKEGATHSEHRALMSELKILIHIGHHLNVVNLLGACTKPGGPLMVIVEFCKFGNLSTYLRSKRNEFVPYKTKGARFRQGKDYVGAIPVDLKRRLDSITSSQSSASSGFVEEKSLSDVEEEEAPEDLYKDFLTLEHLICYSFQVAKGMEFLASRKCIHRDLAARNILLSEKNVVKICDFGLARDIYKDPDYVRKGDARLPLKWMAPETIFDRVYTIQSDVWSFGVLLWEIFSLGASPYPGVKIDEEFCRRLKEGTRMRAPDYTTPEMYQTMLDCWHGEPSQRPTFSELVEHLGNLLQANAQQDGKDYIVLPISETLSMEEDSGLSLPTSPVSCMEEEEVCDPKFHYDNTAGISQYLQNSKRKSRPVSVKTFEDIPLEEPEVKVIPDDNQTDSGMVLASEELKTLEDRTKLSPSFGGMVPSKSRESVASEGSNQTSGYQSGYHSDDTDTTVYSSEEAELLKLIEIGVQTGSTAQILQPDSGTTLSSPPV
Description: Inhibition of VEGFR-2 (unknown origin) using biotinylated poly-GluTyr (4:1) as substrate after 5 mins by ELISA

Chain of Fibroblast growth factor receptor 1 (P11362 whole entry): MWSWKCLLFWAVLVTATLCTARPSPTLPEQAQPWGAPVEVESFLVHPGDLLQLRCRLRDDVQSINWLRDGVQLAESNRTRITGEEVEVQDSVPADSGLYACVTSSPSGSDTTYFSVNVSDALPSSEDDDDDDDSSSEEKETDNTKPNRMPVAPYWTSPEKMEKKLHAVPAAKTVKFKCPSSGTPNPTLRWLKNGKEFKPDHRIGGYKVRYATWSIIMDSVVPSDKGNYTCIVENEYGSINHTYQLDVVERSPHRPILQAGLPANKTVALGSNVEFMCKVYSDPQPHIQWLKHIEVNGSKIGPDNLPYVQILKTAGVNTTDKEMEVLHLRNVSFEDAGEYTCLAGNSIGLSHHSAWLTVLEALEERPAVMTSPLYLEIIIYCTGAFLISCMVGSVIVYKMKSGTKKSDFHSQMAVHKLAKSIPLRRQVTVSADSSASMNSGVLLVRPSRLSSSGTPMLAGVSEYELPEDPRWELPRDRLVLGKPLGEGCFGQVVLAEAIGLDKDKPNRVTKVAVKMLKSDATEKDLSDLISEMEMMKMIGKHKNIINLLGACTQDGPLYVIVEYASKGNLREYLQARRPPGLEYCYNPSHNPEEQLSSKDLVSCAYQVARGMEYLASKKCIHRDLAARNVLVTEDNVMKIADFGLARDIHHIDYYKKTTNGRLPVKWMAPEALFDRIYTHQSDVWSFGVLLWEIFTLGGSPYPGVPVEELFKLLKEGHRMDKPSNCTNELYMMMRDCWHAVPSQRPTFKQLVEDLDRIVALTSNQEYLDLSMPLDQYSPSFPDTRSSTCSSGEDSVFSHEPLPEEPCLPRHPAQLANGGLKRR
Chain of Platelet-derived growth factor receptor beta (P09619 whole entry): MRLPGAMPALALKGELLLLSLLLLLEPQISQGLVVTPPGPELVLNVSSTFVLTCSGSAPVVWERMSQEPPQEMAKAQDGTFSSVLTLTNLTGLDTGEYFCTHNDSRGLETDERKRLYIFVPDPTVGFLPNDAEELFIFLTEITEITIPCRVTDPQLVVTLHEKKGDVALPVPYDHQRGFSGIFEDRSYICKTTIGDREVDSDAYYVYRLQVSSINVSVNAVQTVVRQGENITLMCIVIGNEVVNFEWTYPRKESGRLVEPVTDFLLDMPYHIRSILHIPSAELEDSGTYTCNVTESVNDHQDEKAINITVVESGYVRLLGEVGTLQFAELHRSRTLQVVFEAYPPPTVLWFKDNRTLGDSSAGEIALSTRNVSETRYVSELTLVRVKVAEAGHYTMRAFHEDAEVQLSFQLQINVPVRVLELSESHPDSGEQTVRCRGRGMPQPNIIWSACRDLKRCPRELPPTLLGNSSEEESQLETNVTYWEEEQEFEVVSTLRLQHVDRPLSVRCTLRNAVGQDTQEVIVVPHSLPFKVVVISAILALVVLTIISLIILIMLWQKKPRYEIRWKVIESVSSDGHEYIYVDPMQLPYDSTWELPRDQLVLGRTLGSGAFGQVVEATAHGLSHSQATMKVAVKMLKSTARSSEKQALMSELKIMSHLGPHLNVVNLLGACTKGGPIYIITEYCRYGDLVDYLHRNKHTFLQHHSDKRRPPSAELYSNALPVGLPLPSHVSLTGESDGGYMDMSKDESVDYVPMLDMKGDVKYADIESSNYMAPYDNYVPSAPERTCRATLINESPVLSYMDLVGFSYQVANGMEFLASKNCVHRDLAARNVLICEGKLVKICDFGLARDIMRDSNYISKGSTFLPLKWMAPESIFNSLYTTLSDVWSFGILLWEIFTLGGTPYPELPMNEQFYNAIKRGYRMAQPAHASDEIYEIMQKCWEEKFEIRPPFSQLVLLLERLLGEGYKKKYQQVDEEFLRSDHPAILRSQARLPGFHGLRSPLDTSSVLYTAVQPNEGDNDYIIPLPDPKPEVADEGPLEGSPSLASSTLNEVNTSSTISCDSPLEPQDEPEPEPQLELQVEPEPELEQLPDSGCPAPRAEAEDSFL

Row | IC50 [1] [nM] | IC50 [2] [nM] | Structure (SMILES) | further results
1 | 380 | 230 | COc1ccc(C(=O)Nc2ccc(C(=O)N/N=C3\C(=O)Nc4ccc(Br)cc43)cc2)cc1 | 
2 |  |  | COc1cccc2c1C(=O)c1c(O)c3c(c(O)c1C2=O)C[C@@](O)(C(=O)CO)C[C@@H]3O[C@H]1C[C@H](N)[C@H](O)[C@H](C)O1 [DOXORUBICIN] | IC50 [3]: 4100 nM; IC50 [4]: 1100 nM; IC50 [5]: 80300 nM; IC50 [6]: 4360 nM
3 | 230 | 100 | COc1ccc2c(c1)/C(=N/NC(=O)c1ccc(NC(=O)Nc3ccc(Cl)c(C(F)(F)F)c3)cc1)C(=O)N2 | 
4 | 170 | 330 | COc1ccc(NC(=O)Nc2ccc(C(=O)N/N=C3\C(=O)Nc4ccc(OC)cc43)cc2)cc1 | 
5 | 420 | 1290 | COc1cccc(NC(=O)Nc2ccc(C(=O)N/N=C3\C(=O)Nc4ccc(Cl)cc43)cc2)c1 | 
6 | 280 | 3640 | COc1ccc2c(c1)/C(=N/NC(=O)c1ccc(NC(=O)Nc3ccccc3)cc1)C(=O)N2 | 
7 | 310 | 450 | O=C(Nc1ccc(C(=O)N/N=C2\C(=O)Nc3ccc(Br)cc32)cc1)Nc1ccc(Cl)c(C(F)(F)F)c1 | 
8 | 390 | 1820 | COc1ccc2c(c1)/C(=N/NC(=O)c1ccc(NC(=O)Nc3ccc(Cl)cc3)cc1)C(=O)N2 | 
9 | 390 | 2010 | COc1ccc2c(c1)/C(=N/NC(=O)c1ccc(NC(=O)c3ccc(Cl)cc3)cc1)C(=O)N2 | 
10 | 480 | 1590 | COc1cccc(NC(=O)Nc2ccc(C(=O)N/N=C3\C(=O)Nc4ccc(Br)cc43)cc2)c1 | 
11 |  |  | CNC(=O)c1cc(Oc2ccc(NC(=O)Nc3ccc(Cl)c(C(F)(F)F)c3)cc2)ccn1 [SORAFENIB] | IC50 [3]: 5230 nM; IC50 [5]: 85000 nM; IC50 [7]: 4270 nM; IC50 [6]: 6110 nM
12 | 460 | 90 | COc1ccc(C(=O)Nc2ccc(C(=O)N/N=C3\C(=O)Nc4ccc(OC)cc43)cc2)cc1 | 
13 | 610 | 3790 | COc1ccc(NC(=O)Nc2ccc(C(=O)N/N=C3\C(=O)Nc4ccc(Br)cc43)cc2)cc1 | 
14 | 300 | 110 | COc1cccc(NC(=O)Nc2ccc(C(=O)N/N=C3\C(=O)Nc4ccc(OC)cc43)cc2)c1 | IC50 [8]: 270 nM; IC50 [3]: 2930 nM; IC50 ([4]; read-out: IC50): 780 nM; IC50 [5]: 45800 nM; IC50 [7]: 27000 nM; IC50 [6]: > 100000 nM
